# Assay results from US5631246A, “Use of PAF” (The Canadian Red Cross Society, priority 1993, dated 1997).
# Assays:
# [1] = Stability of PAF in stored monocyte conditioned media; format: physicochemical; details: -80° C., various periods of time; within experimental error
# Description: In addition, PAF was extracted from the monocyte supernatants and assayed using the following highly specific and sensitive radioimmunoassay. As the most predominant bioactive forms of PAF secreted by monocytes are the C16 and C18 alkyl moieties (Sugiura and Waku, (1987) Platelet-Activating Factor and Related Lipid Mediators, F. Snyder Ed. Plenum Press, N.Y. 55-85; Prescott et al. (1990) Proc. Natl. Acad. Sci. U.S.A. 81:3534-3538), PAF was quantitated using the highly specific and sensitive ^125 I-RIA kit manufactured by NEN Research Products (Du Pont Canada, Mississauga, Ontario, Canada) following extraction of the monocyte supernatants with 5 mL each of methanol and chloroform and 3.5 mL of water per mL of sample. The recovered chloroform layers, dried under nitrogen, were reconstituted in the PAF assay kit buffer prior to analysis. […] Recoveries of PAF (90±1%, n=>130) were assessed by adding trace amounts of ^3 H-PAF to the sample prior to extraction and determining the % recoveries using a liquid scintillation counter (Model-7000, Beckman Instruments Canada). Iodinated samples were counted on a Beckman Gamma 5500 counter (Beckman Instruments, Fullerton, Calif.). […]
# [2] = test system: ECs; details: stimulation with PAF; D'Humieres et al. (1986); cited from earlier work
# [3] = test system: endothelial cells (ECs); assay: vWf release from ECs exposed directly to PAF or thrombin; details: for Increase in vWf release (%), BTP-dioxolane absent: 4 hours
# Description: Synthetic PAF (1-O-alkyl-2-acetyl-sn-glyceryl-3-phosphorylcholine; Sigma #P-9525) prepared from bovine heart lecithin (Demopoulos et al. (1979) J. Biol. Chem. 254: 9355-358) was 99% pure by TLC analysis, HPLC analysis indicated this product consisted of 70% C16 and 13% C18 forms of PAF (Mita et al., (1989) Anal. Biochem. 180:131-135). After removal of chloroform, PAF was resuspended in DMEM/F12 culture medium containing 1% Nutridoma-HU (final protein concentration of 40 μM stock solution). After sonication for 3×1 minute periods, the PAF solution was diluted and used immediately.
# Media with or without thrombin (@5 units/mL) served as positive and negative controls respectively. ECs were incubated for 1, 10, 20 or 30 minutes and 1, 2, 4, 6 and 24 hours in the PAF and thrombin time course studies. The EC conditioned media were recovered, centrifuged to remove any cell debris, and then frozen at -80° C. for a maximum period of 4 weeks prior to analyses. […] Where appropriate ECs were preincubated with BTP-dioxolane which was not cytotoxic to the cells as determined by the dye exclusion test.
# Endothelial cells (ECs) were harvested from human umbilical cord vein as described by Jaffe et al. ((1973) Culture of Human Endothelial Cells Derived from Umbilical Veins: Identification by Morphologic and Immunologic Criteria, J. Clin. Invest. 52:2745-2756) and modified by Hashemi et al. (1990, supra). Endothelial cells were subcultured in 0.2% (w/v) gelatin-coated, 12-well Linbro™ polystyrene, tissue culture plates (Flow Laboratories, Mississauga, Ontario), then plated at a density of 1-2×10^4 /well and grown to confluence.
# The standard consisted of a pool of plasma from 20 normal individuals previously determined to contain 1 unit of vWf per mL by the procedure of Zimmerman et al. (1977, J. Clin. Invest. 59:984-989). […] For some experiments, the maximum vWf that could be released was determined. Following incubation, the EC conditioned media were recovered and fresh media containing 0.05% (v/v) Tween 20 and 10 μM each of the protease inhibitors D-phenylalanyl-phenylalanyl-arginyl-chloromethyl ketone, D-phenylalanyl-propyl-arginyl-chloromethyl ketone and 1,5-Dansyl-glutamyl-glycyl-arginyl-chloromethyl ketone were added to the EC monolayers of each corresponding well. The cells were freeze-thawed three times and, to assure complete breakdown of the cell membranes as well as the Weibel-Palade bodies, disrupted in a glass homogenizer using a motor-driven teflon pestle. After centrifugation, total vWf concentration was determined in the supernatants.
# In order to examine the responsiveness of ECs to direct PAF exposure, we incubated the monolayers of ECs with 0-300 pico molar (pM) PAF for a period of 4 hours at 37° C. and determined the amount of vWf released into the EC media. […] To determine the time course of PAF effects on vWf release, 300 pM PAF was incubated with monolayers of ECs for 1, 10, 20 and 30 minutes as well as for 1, 2, 4, 6 and 24 hours. […] As a control, the vWf release from thrombin stimulated ECs was also determined (FIG. 5).
substance,measurement,setting,value
1-O-alkyl-2-acetyl-sn-glyceryl-3-phosphorylcholine [PAF],PAF values in monocyte conditioned media after storage,[1],gave the same values
same,PGI2 release from ECs,[2],release PGI2 in response to stimulation
same,vWf release from ECs (maximal),"[3]; 300 pM PAF, 30 minutes, P<0.05, n=5",151%
same,vWf release as share of the maximal vWf recoverable,"[3]; 300 pM PAF, 30 minutes, […]",~ 4%
same,time course of vWf release from ECs,"[3]; 300 pM PAF, FIG. 5",released vWf at all time points up to 24 hours
same,PAF concentration range of greatest vWf release response,"[3]; FIG. 4, 4 hours at 37° C., n=5",100 to 300 pM
same,"Increase in vWf release (%), BTP-dioxolane absent","[3]; PAF 100 pM, n=5",190.8 ± 46.6%
same,"Increase in vWf release (%), BTP-dioxolane absent","[3]; PAF 300 pM, n=5",204.2 ± 48.7%
